Assay results taken from ChEMBL document CHEMBL1201862, “PubChem BioAssay data set” (2004).
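A five-concentration, 48-hour dose response in 96-well plates underlies each endpoint, interpolated linearly between surrounding concentrations. The concentration for 50% growth inhibition is given as GI50.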 Active and inactive are the calls of the source. Cut-off read from the data, not from the text of the source: active = GI50 up to about 1.1 µM and inactive = higher.

How the values were obtained:
Assay in all cases: DTP human tumour cell line panel, 48 h
[1] = tested on: MOLT-4
[2] = tested on: UACC-257
[3] = tested on: LXFL 529
[4] = tested on: ACHN
[5] = tested on: IGROV-1
[6] = tested on: SNB-75
[7] = tested on: OVCAR-5
[8] = tested on: SR
[9] = tested on: HCT-116
[10] = tested on: HT-29
[11] = tested on: HCC 2998
[12] = tested on: A549
[13] = tested on: SF-295
[14] = tested on: RPMI-8226
[15] = tested on: A498
[16] = tested on: DMS-273
[17] = tested on: M14
[18] = tested on: HOP-18
[19] = tested on: NCI-H226
[20] = tested on: RXF 393
[21] = tested on: U-251
[22] = tested on: SNB-78
[23] = tested on: NCI-H23
[24] = tested on: UACC-62
[25] = tested on: KM-20L2
[26] = tested on: HL-60
[27] = tested on: SK-OV-3
[28] = tested on: KM12
[29] = tested on: SF-268
[30] = tested on: K562
[31] = tested on: Malme-3M
[32] = tested on: HCT-15
[33] = tested on: UO-31
[34] = tested on: SK-MEL-5
[35] = tested on: DMS-114
[36] = tested on: SNB-19
[37] = tested on: SK-MEL-2
[38] = tested on: OVCAR-8
[39] = tested on: HOP-62
[40] = tested on: SW-620
[41] = tested on: SF-539
[42] = tested on: DLD-1
[43] = tested on: NCI-H460
[44] = tested on: NCI-H522
[45] = tested on: COLO 205
[46] = tested on: XF498
[47] = tested on: OVCAR-4
[48] = tested on: TK-10
[49] = tested on: OVCAR-3
[50] = tested on: EKVX
[51] = tested on: CAKI-1
[52] = tested on: SN12C
[53] = tested on: M19-MEL
[54] = tested on: 786-0
[55] = tested on: HOP-92
[56] = tested on: SK-MEL-28
[57] = tested on: CCRF-CEM

CC(C)C(Nc1c2ccccc2[n+](C)c2ccccc12)C(=O)O (stereo unspecified)
GI50 [1]: > 100 µM (inactive)
GI50 [2]: > 100 µM (inactive)
GI50 [3]: > 100 µM (inactive)
GI50 [4]: > 100 µM (inactive)
GI50 [5]: > 100 µM (inactive)
GI50 [6]: > 100 µM (inactive)
GI50 [7]: > 100 µM (inactive)
GI50 [8]: > 100 µM (inactive)
GI50 [9]: > 100 µM (inactive)
GI50 [10]: > 100 µM (inactive)
GI50 [11]: > 100 µM (inactive)
GI50 [12]: > 100 µM (inactive)
GI50 [13]: > 100 µM (inactive)
GI50 [14]: > 100 µM (inactive)
GI50 [15]: > 100 µM (inactive)
GI50 [16]: > 100 µM (inactive)
GI50 [17]: > 100 µM (inactive)
GI50 [18]: > 100 µM (inactive)
GI50 [19]: > 100 µM (inactive)
GI50 [20]: > 100 µM (inactive)
GI50 [21]: > 100 µM (inactive)
GI50 [22]: > 100 µM (inactive)
GI50 [23]: > 100 µM (inactive)
GI50 [24]: > 100 µM (inactive)
GI50 [25]: > 100 µM (inactive)
GI50 [26]: 99.5 µM (inactive)
GI50 [27]: > 100 µM (inactive)
GI50 [28]: > 100 µM (inactive)
GI50 [29]: > 100 µM (inactive)
GI50 [30]: > 100 µM (inactive)
GI50 [31]: > 100 µM (inactive)
GI50 [32]: > 100 µM
GI50 [33]: > 100 µM (inactive)
GI50 [34]: > 100 µM (inactive)
GI50 [35]: > 100 µM (inactive)
GI50 [36]: > 100 µM (inactive)
GI50 [37]: > 100 µM (inactive)
GI50 [38]: > 100 µM (inactive)
GI50 [39]: > 100 µM (inactive)
GI50 [40]: > 100 µM (inactive)
GI50 [41]: > 100 µM (inactive)
GI50 [42]: > 100 µM (inactive)
GI50 [43]: > 100 µM (inactive)
GI50 [44]: 1.3 µM (inactive)
GI50 [45]: > 100 µM (inactive)
GI50 [46]: > 100 µM (inactive)
GI50 [47]: > 100 µM (inactive)
GI50 [48]: > 100 µM (inactive)
GI50 [49]: > 100 µM (inactive)
GI50 [50]: > 100 µM (inactive)
GI50 [51]: > 100 µM (inactive)
GI50 [52]: > 100 µM (inactive)
GI50 [53]: > 100 µM (inactive)
GI50 [54]: > 100 µM (inactive)

C/C(=N/NS(=O)(=O)c1ccc([N+](=O)[O-])cc1)c1cccc[n+]1[O-]
GI50 [1]: > 100 µM (inactive)
GI50 [2]: > 100 µM (inactive)
GI50 [3]: > 100 µM (inactive)
GI50 [4]: > 100 µM (inactive)
GI50 [5]: > 100 µM (inactive)
GI50 [6]: > 100 µM (inactive)
GI50 [7]: > 100 µM (inactive)
GI50 [8]: > 100 µM (inactive)
GI50 [9]: > 100 µM (inactive)
GI50 [10]: > 100 µM (inactive)
GI50 [55]: > 100 µM (inactive)
GI50 [11]: > 100 µM (inactive)
GI50 [12]: > 100 µM (inactive)
GI50 [13]: > 100 µM (inactive)
GI50 [14]: > 100 µM (inactive)
GI50 [15]: > 100 µM (inactive)
GI50 [16]: > 100 µM (inactive)
GI50 [17]: > 100 µM (inactive)
GI50 [18]: > 100 µM (inactive)
GI50 [21]: > 100 µM (inactive)
GI50 [22]: > 100 µM (inactive)
GI50 [23]: > 100 µM (inactive)
GI50 [24]: > 100 µM (inactive)
GI50 [25]: > 100 µM (inactive)
GI50 [26]: > 100 µM (inactive)
GI50 [27]: > 100 µM (inactive)
GI50 [28]: > 100 µM (inactive)
GI50 [29]: > 100 µM (inactive)
GI50 [30]: > 100 µM (inactive)
GI50 [32]: > 100 µM
GI50 [33]: > 100 µM (inactive)
GI50 [34]: > 100 µM (inactive)
GI50 [35]: > 100 µM (inactive)
GI50 [36]: > 100 µM (inactive)
GI50 [38]: > 100 µM (inactive)
GI50 [39]: > 100 µM (inactive)
GI50 [40]: > 100 µM (inactive)
GI50 [41]: > 100 µM (inactive)
GI50 [42]: > 100 µM (inactive)
GI50 [43]: > 100 µM (inactive)
GI50 [44]: > 100 µM (inactive)
GI50 [56]: > 100 µM (inactive)
GI50 [46]: > 100 µM (inactive)
GI50 [47]: > 100 µM (inactive)
GI50 [48]: > 100 µM (inactive)
GI50 [49]: > 100 µM (inactive)
GI50 [50]: > 100 µM (inactive)
GI50 [51]: > 100 µM (inactive)
GI50 [52]: > 100 µM (inactive)
GI50 [53]: > 100 µM (inactive)
GI50 [57]: > 100 µM (inactive)
GI50 [54]: > 100 µM (inactive)
